{"source": "patent US20150105252A1", "about": "“SUBSTITUTED PYRAZOLES AS HERBICIDES” (E I DU PONT DE NEMOURS AND COMPANY, priority 2013, published 2015)", "key": {"barnyardgrass [1]": {"system": "barnyardgrass", "test": "Test A preemergence", "type": "in vivo, Echinochloa crus-galli", "details": "preemergence", "how_it_was_run": "(§1)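 Visual injury rating, 0–100 (0 no effect, 100 complete control), vs untreated controls ~10 days after treatment in greenhouse. Pre: directed soil spray on seeded loam/sand. Post: 2–10 cm plants, 1–2 leaf stage. Formulation: non-phytotoxic solvent mix + surfactant.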"}, "barnyardgrass [2]": {"system": "barnyardgrass", "test": "Test A postemergence", "type": "in vivo, Echinochloa crus-galli", "how_it_was_run": "as §1"}, "pigweed": {"system": "pigweed", "test": "Test A postemergence", "type": "in vivo, Amaranthus retroflexus", "how_it_was_run": "as §1"}, "nutsedge, yellow": {"system": "nutsedge, yellow", "test": "Test C preemergence", "type": "in vivo, Cyperus esculentus", "details": "for Nutsedge, Yellow plant response rating: scale 0 to 100 (0 no effect, 100 complete control)", "how_it_was_run": "(§2)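 Scores of 0 (no effect) to 100 (complete control) were assigned by eye after 13–15 days, comparing treated pots with controls. Soil-applied (preemergence) treatments went onto seeds in loam and sand; foliar (postemergence) treatments onto 1- to 4-leaf plants in peat medium.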"}, "soybean [3]": {"system": "soybean", "test": "Test C preemergence", "type": "in vivo, Glycine max", "details": "for Soybean plant response rating: scale 0 to 100 (0 no effect, 100 complete control)", "how_it_was_run": "as §2"}, "oilseed rape [4]": {"system": "oilseed rape", "test": "Test C preemergence", "type": "in vivo, Brassica napus", "details": "for Oilseed Rape plant response rating: scale 0 to 100 (0 no effect, 100 complete control)", "how_it_was_run": "as §2"}, "velvetleaf [5]": {"system": "velvetleaf", "test": "Test C preemergence", "type": "in vivo, Abutilon theophrasti", "details": "for Velvetleaf plant response rating: scale 0 to 100 (0 no effect, 100 complete control)", "how_it_was_run": "as §2"}, "wheat": {"system": "wheat", "test": "Test C postemergence", "type": "in vivo, Triticum aestivum", "how_it_was_run": "as §2"}, "corn": {"system": "corn", "test": "Test C postemergence", "type": "in vivo, Zea mays", "how_it_was_run": "as §2"}, "soybean [6]": {"system": "soybean", "test": "Test C postemergence", "type": "in vivo, Glycine max", "how_it_was_run": "as §2"}, "barnyardgrass [7]": {"system": "barnyardgrass", "test": "Test C postemergence", "type": "in vivo, Echinochloa crus-galli", "how_it_was_run": "as §2"}, "oilseed rape [8]": {"system": "oilseed rape", "test": "Test C postemergence", "type": "in vivo, Brassica napus", "how_it_was_run": "as §2"}, "velvetleaf [9]": {"system": "velvetleaf", "test": "Test C postemergence", "type": "in vivo, Abutilon theophrasti", "how_it_was_run": "as §2"}, "[10]": {"details": "Postemergence, 500 g ai/ha, 0 to 100 scale (0 no effect, 100 complete control)"}, "[11]": {"details": "postemergence, 125 g ai/ha, about 10 days, visual rating on 0 to 100 scale (0 no effect, 100 complete control)"}, "[12]": {"details": "preemergence, 31 g ai/ha, visual rating, 13 to 15 days"}, "[13]": {"details": "preemergence, 62 g ai/ha, 13 to 15 days"}, "[14]": {"details": "preemergence, 125 g ai/ha, 13 to 15 days, scale 0 to 100, 0 = no effect, 100 = complete control"}, "[15]": {"details": "Postemergence, 31 g ai/ha, visually evaluated after 13 to 15 days"}, "[16]": {"details": "postemergence, 62 g ai/ha, scale 0 to 100"}, "[17]": {"details": "postemergence, 250 g ai/ha, scale 0 to 100 (0 no effect, 100 complete control)"}, "[18]": {"details": "postemergence, 125 g ai/ha, scale 0 to 100, 0 no effect, 100 complete control"}}, "data": [{"smiles": "CCCc1cc(C(=O)NCC(F)(F)F)nn1Cc1ccnc(OC(F)F)c1", "note": "[Compound 127]", "values": [{"measurement": "Barnyardgrass plant response rating", "setting": "barnyardgrass [1]; 125 g ai/ha, visual injury, 0 to 100 scale, approx. 10 days", "value": 90}, {"measurement": "Barnyardgrass plant response rating", "setting": "barnyardgrass [1]; 500 g ai/ha, visual injury after approx. 10 days, 0 to 100 scale (0 no effect, 100 complete control)", "value": 90}, {"measurement": "Barnyardgrass plant response rating", "setting": "barnyardgrass [2]; [10]", "value": 90}, {"measurement": "Barnyardgrass plant response rating", "setting": "barnyardgrass [2]; [11]", "value": 90}, {"measurement": "Pigweed plant response rating", "setting": "pigweed; [10]", "value": 90}, {"measurement": "Pigweed plant response rating", "setting": "pigweed; [11]", "value": 90}, {"measurement": "Plant response rating (scale of 0 to 100), Nutsedge, Yellow", "setting": "nutsedge, yellow; Preemergence, 250 g ai/ha", "value": 85}, {"measurement": "Nutsedge, Yellow plant response rating", "setting": "nutsedge, yellow; [12]", "value": 25}, {"measurement": "Nutsedge, Yellow plant response rating", "setting": "nutsedge, yellow; [13]", "value": 50}, {"measurement": "Plant response rating, Nutsedge, Yellow", "setting": "nutsedge, yellow; [14]", "value": 70}, {"measurement": "Plant response rating (scale of 0 to 100), Soybean", "setting": "soybean [3]; Preemergence, 250 g ai/ha", "value": 85}, {"measurement": "Soybean plant response rating", "setting": "soybean [3]; [12]", "value": 30}, {"measurement": "Soybean plant response rating", "setting": "soybean [3]; [13]", "value": 45}, {"measurement": "Plant response rating, Soybean", "setting": "soybean [3]; [14]", "value": 65}, {"measurement": "Plant response rating (scale of 0 to 100), Oilseed Rape", "setting": "oilseed rape [4]; Preemergence, 250 g ai/ha", "value": 100}, {"measurement": "Oilseed Rape plant response rating", "setting": "oilseed rape [4]; [12]", "value": 85}, {"measurement": "Oilseed Rape plant response rating", "setting": "oilseed rape [4]; [13]", "value": 100}, {"measurement": "Plant response rating, Oilseed Rape", "setting": "oilseed rape [4]; [14]", "value": 100}, {"measurement": "Plant response rating (scale of 0 to 100), Velvetleaf", "setting": "velvetleaf [5]; Preemergence, 250 g ai/ha", "value": 100}, {"measurement": "Velvetleaf plant response rating", "setting": "velvetleaf [5]; [12]", "value": 60}, {"measurement": "Velvetleaf plant response rating", "setting": "velvetleaf [5]; [13]", "value": 60}, {"measurement": "Plant response rating, Velvetleaf", "setting": "velvetleaf [5]; [14]", "value": 100}, {"measurement": "Plant response rating (scale of 0 to 100 where 0 is no effect and 100 is complete control), Wheat", "setting": "wheat; [15]", "value": 5}, {"measurement": "Wheat plant response rating", "setting": "wheat; [16]", "value": 5}, {"measurement": "Plant response rating, Wheat", "setting": "wheat; [17]", "value": 10}, {"measurement": "Plant response rating, Wheat", "setting": "wheat; [18]", "value": 5}, {"measurement": "Plant response rating (scale of 0 to 100 where 0 is no effect and 100 is complete control), Corn", "setting": "corn; [15]", "value": 5}, {"measurement": "Corn plant response rating", "setting": "corn; [16]", "value": 5}, {"measurement": "Plant response rating, Corn", "setting": "corn; [17]", "value": 25}, {"measurement": "Plant response rating, Corn", "setting": "corn; [18]", "value": 10}, {"measurement": "Plant response rating (scale of 0 to 100 where 0 is no effect and 100 is complete control), Soybean", "setting": "soybean [6]; [15]", "value": 40}, {"measurement": "Soybean plant response rating", "setting": "soybean [6]; [16]", "value": 65}, {"measurement": "Plant response rating, Soybean", "setting": "soybean [6]; [17]", "value": 85}, {"measurement": "Plant response rating, Soybean", "setting": "soybean [6]; [18]", "value": 70}, {"measurement": "Plant response rating (scale of 0 to 100 where 0 is no effect and 100 is complete control), Barnyardgrass", "setting": "barnyardgrass [7]; [15]", "value": 5}, {"measurement": "Barnyardgrass plant response rating", "setting": "barnyardgrass [7]; [16]", "value": 5}, {"measurement": "Plant response rating, Barnyardgrass", "setting": "barnyardgrass [7]; [17]", "value": 15}, {"measurement": "Plant response rating, Barnyardgrass", "setting": "barnyardgrass [7]; [18]", "value": 10}, {"measurement": "Plant response rating (scale of 0 to 100 where 0 is no effect and 100 is complete control), Oilseed Rape", "setting": "oilseed rape [8]; [15]", "value": 65}, {"measurement": "Oilseed Rape plant response rating", "setting": "oilseed rape [8]; [16]", "value": 70}, {"measurement": "Plant response rating, Oilseed Rape", "setting": "oilseed rape [8]; [17]", "value": 85}, {"measurement": "Plant response rating, Oilseed Rape", "setting": "oilseed rape [8]; [18]", "value": 80}, {"measurement": "Plant response rating (scale of 0 to 100 where 0 is no effect and 100 is complete control), Velvetleaf", "setting": "velvetleaf [9]; [15]", "value": 10}, {"measurement": "Velvetleaf plant response rating", "setting": "velvetleaf [9]; [16]", "value": 15}, {"measurement": "Plant response rating, Velvetleaf", "setting": "velvetleaf [9]; [17]", "value": 70}, {"measurement": "Plant response rating, Velvetleaf", "setting": "velvetleaf [9]; [18]", "value": 45}]}]}
